Measurements: US5159085A, “2-anilino phenylacetic acid derivatives as inhibitors of PLA2 and lipoxygenase” (American Home Products Corporation, priority 1991, dated 1992)

Legend:
human platelet PLA2 = molecular target: T1, human platelet PLA2 (Homo sapiens, UniProt P14555); test: In vitro isolated phospholipase A2 assay, human platelet PLA2 (arachidonic acid release from 3H-AA E. coli substrate); format: biochemical; conditions: 10 μM; human platelet; negative values denote potentiation; read-out: % Inhibition at 10 μM HP
T1 construct: Semipurified human platelet acid extract PLA2; from tissue; host or cells: human platelets (semipurified acid extract)
T1 sequence (P14555 21-144): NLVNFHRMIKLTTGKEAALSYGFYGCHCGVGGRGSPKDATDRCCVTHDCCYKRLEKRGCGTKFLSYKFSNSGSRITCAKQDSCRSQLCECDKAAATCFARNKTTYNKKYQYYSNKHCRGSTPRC

[1] = system: LTB4 synthesis by rat glycogen-elicited polymorphonuclear leukocytes (lipoxygenase); test: Inhibition of LTB4 synthesis by rat glycogen-elicited polymorphonuclear leukocytes (PMN); format: cell-based, rat (female Wistar); conditions: Leukocyte, A 23187 and exogenous AA; for inhibition at 0.5 µM: negative value denotes potentiation
Excerpt: This is especially true with respect to 5,12-diHETE, which is also denoted as LTB4 [see Ford-Hitchinson, J. Roy. Soc. Med., 74, 831 (1981)]. Compounds which inhibit the PLA2 -mediated release of arachidonic acid thereby effectively prevent the oxidation of arachidonic acid to the various leukotriene products via the lipoxygenase cascade. Accordingly, the specificity of action of PLA2 inhibitors can be determined by the activity of test compounds in this assay, which measures the ability of compounds to inhibit the synthesis of LTB4 by rat glycogen-elicited polymorphonuclear leukocytes (PMN) in the presence of exogenous substrate.
(§1) The assay is carried out as follows:
(§2) Rat polymorphonuclear leukocytes (PMNs) are obtained from female Wistar rats (150-200 g) which receive an injection of 6% glycogen (10 ml i.p.). Rats are sacrificed 18-24 hours post injection by CO2 asphyxiation and the elicited cells are harvested by peritoneal lavage using physiological saline (0.9% NaCl). The exudate is centrifuged at 400×g for 10 minutes. The supernatant fluid is discarded and the cell pellet is resuspended to a concentration of 2.0×10^7 cells/ml in HBSS containing Ca^++ and Mg^++ and 10 μM L-cysteine.
(§3) To 1 ml aliquots of cell suspension, test drugs or vehicle are added, then preincubated at 37° C. for 10 minutes. A 23187 (1 μM), [^3 H]-AA (3.0 μCi/ml) and unlabeled AA (1 μM) are then added and the samples are further incubated for 10 minutes. The reaction is terminated by centrifugation and pelleting cells. Supernatants are then analyzed by HPLC analysis on a 15 cm×4.6 mm ID supelcosil LC-18 (Supelco)(3M) column, using a two solvent system at a flow rate of 1.4 ml total flow as follows:
Gradient: (system is equillibrated with Solvent A)
(§4) Percent solvent changes are accomplished in a linear fashion.
(§5) Injections: 150 μl of each supernatant is injected directly onto column and ^3 H arachidonic acid metabolites are monitored using an on-line radioactivity detector (Ramona, IN/US, Fairfield, NJ).
(§6) Standards: 10^4 -2.0×10^4 dpm of eicosanoids of interest are injected in 90 μl EtOH cocktail.
(§7) Co-chromatography with standard [^3 H] leukotriene B4 (LTB4) in medium of stimulated PMN exposed to drug is compared to that found in medium of stimulated cells exposed to no drug, generating percent inhibition.
(§8) Results are expressed as percent inhibition at a given compound dose or as an IC50 value.

[2] = system: TxB2 synthesis (cyclooxygenase) by rat glycogen-elicited polymorphonuclear leukocytes; test: Inhibition of TxB2 synthesis by rat glycogen-elicited PMN (cyclooxygenase); format: cell-based, rat (female Wistar); conditions: Rattus norvegicus, Leukocyte; for inhibition at 0.5 µM: negative values denote potentiation of cyclooxygenase
Description: as §2, §3, §4, §5, §6, §7, §8
In this assay, the procedure of Example 19 is carried out as described. However, in order to determine cyclooxygenase activity, the samples are co-chromatographed with authentic reference [^3 H]-TxB2.
The results are calculated as in Example 19 and presented below: […]

[3] = system: paw edema induced by exogenous PLA2 (snake, A. piscivorus piscivorus); test: In vivo PLA2 murine paw edema assay; parameters: species or system mouse (male CD-1); conditions: for change in vivo at 1 mg/kg: Mus musculus, ip, 0.5 h; for % Change in Edema 30 min / change in vivo at 1 mg/kg: 30 min
Description: The ability of the compounds of the invention to inhibit paw edema induced by the exogenous administration of PLA2 is measured in the in vivo PLA2 murine paw edema assay.
as §1
Non-fasted, male CD-1 mice (8 weeks old; 31-36 grams) are placed in plastic boxes in groups of six. The right hind paw volume is measured using mercury plethysmography (zero time). […] A solution of purified PLA2, from the diamond back cotton mouth snake (A. piscivorus piscivorus) is prepared in saline at a concentration of 6 μg/ml. Fifty (50) μl (0.3 μg) of this PLA2 solution is injected subcutaneously into the right hind paw with a plastic 1 ml plastic syringe (27 gauge, 1" needle). Paw volume of the injected paw is measured again at 10 minutes, 30 minutes and 60 minutes after PLA2 injection. Animals are euthanized with CO2 at the completion of the study.
The paw edema is calculated by subtracting the zero time volume from the volume recorded at each time period. Mean paw edema for each treatment group is then calculated and expressed as (μl±S.E.). Drug effects are expressed as a percent change from control (vehicle) values. Statistical significance is determined by a one-way analysis of variance with LSD comparison to control (p<0.05). ED50 's are determined using repression analysis.

[4] = molecular target: T2, human synovial fluid PLA2 (Homo sapiens, UniProt P14555); test: In vitro isolated phospholipase A2 assay, human synovial fluid PLA2; format: biochemical; conditions: 10 μM; human synovial fluid; negative values denote potentiation; read-out: % Inhibition at 10 μM HSF
T2 construct: Purified human synovial fluid; from tissue; host or cells: human synovial fluid
T2 sequence (P14555 21-144): T1 sequence (P14555 21-144)
Description: The compounds of the invention are tested in an in vitro isolated phospholipase A2 assay to determine the ability of the test compounds to inhibit the release of arachidonic acid from an arachidonic acid-containing substrate by the action of phospholipase A2 enzyme from human and non-human sources.
(§9) This assay is carried out as follows:
Into a 15 mL polypropylene tube are added the following:
*pre-incubate at room temperature 30 min prior to substrate addition.
^5 Stock 10 mM prepared in dimethyl sulfoxide. Make 1:2 dilution with
dimethyl sulfoxide and add 1 μ L to 100 μL assay tube.
^6 Two human PLA2 enzymes are used:
b) Purified human synovial fluid.
Incubate the 100 μL reaction mixture for 10 minutes at 37° C. in a shaking water bath. The reaction is terminated by the addition of 2 mL tetrahydrofuran, followed by vortexing. NH2 columns (100 μg/mL--Analytichem International) are conditioned with 0.5 mL tetrahydrofuran followed by 0.5 mL tetrahydrofuran/water (2 mL:0.1 mL, v/v).
The sample is loaded onto the columns and slowly drawn through them. The hydrolyzed arachidonic acid retained in the columns is eluted therefrom with 1 mL tetrahydrofuran/glacial acetic acid (2%). The arachidonic acid is transferred to scintillation vials and quantitated by β-counting analysis. A "total counts" sample is prepared by pipetting 25 μL ^3 H-arachidonate E. coli directly into a scintillation vial to which is added 1 mL tetrahydrofuran. 10 mL aquasol (scintillation cocktail) is added to all samples. [formula]

LTC4 = test: In vivo murine zymosan peritonitis assay, LTC4 (lipoxygenase pathway); parameters: species or system mouse (male CD-1); conditions: p.o., mouse, standard drugs
Description: The compounds of the invention are evaluated for their ability to inhibit the lipoxygenase and/or cyclooxygenase pathways of arachidonic acid metabolism in the in vivo murine zymosan peritonitis assay.
as §9
Male CD-1 mice (8 weeks old) are placed in plastic boxes in groups of six. Animals are injected with 1 ml i.p. of either 1% zymosan in pyrogen free 0.9% saline or saline (unstimulated control). Compounds are dosed orally 1 hour prior to zymosan injection. Twenty minutes after zymosan injection, the mice are asphyxiated by CO2 inhalation and the peritoneal cavity is lavaged with 2 ml ice cold Hanks Balanced Salt Solution (HBSS) without CaCl2, MgSO4 ·7H2 O and MgCL2 ·6H2 O. Peritoneal lavage fluid from each mouse is removed by syringe and placed in 5 ml plastic test tubes put on ice and volume is noted. Preparation of samples for evaluation by ELISA is as follows: Samples are centrifuged at 800×g for 15 minutes; 1 ml of the supernatant is added to 8 ml ice cold methanol and kept at -70° C. overnight to precipitate protein; and samples are then centrifuged at 800×g for 15 minutes, followed by a drying procedure in a Savant speed vac concentrator. The samples are reconstituted with 1 ml ice cold ELISA buffer and stored at -70° C. until assayed. The assay for eicosanoids (LTC4 and 6-keto-PGF1α) is performed according to conventional ELISA procedures.
Compounds to be tested orally are suspended in 0.5% Tween 80. Compounds to be tested intraperitoneally are suspended in 0.5% methylcellulose in 0.9% saline.
The total metabolite level in lavage fluid/mouse is calculated and the significance is determined by a one-way analysis of variance with LSD comparisons to control (p≤0.05). Drug effects are expressed as a percent change from control values.

| Structure (SMILES) | inhibition at 10 µM (human platelet PLA2) [%] | inhibition at 0.5 µM [1] [%] | inhibition at 0.5 µM [2] [%] | % Change in Edema 3 min ([3]; 1 mg/kg i.p.) [%] | % Change in Edema 10 min ([3]; 1 mg/kg i.p.) [%] | % Change in Edema 10 min ([3]; 10 mg/kg i.p.) [%] | % Change in Edema 30 min ([3]; 10 mg/kg i.p.) [%] | % Change in Edema 60 min ([3]; 10 mg/kg i.p.) [%] | % Change in Edema 10 min ([3]; 50 mg/kg p.o.) | % Change in Edema 30 min ([3]; 50 mg/kg p.o.) [%] | % Change in Edema 60 min ([3]; 50 mg/kg p.o.) [%] | change in vivo at 1 mg/kg ([3]; 1 mg/kg i.p.) [%] | inhibition at 10 µM [4] [%] | inhibition at 10 µM [1] [%] | inhibition at 10 µM ([2]; at 10 μM) [%] | % Change in Edema 3 min ([3]; 10 mg/kg i.p.) [%] | % Change in Edema 3 min ([3]; 50 mg/kg p.o.) | ED50 LTC4 (LTC4) |
| --- | --- | --- | --- | --- | --- | --- | --- | --- | --- | --- | --- | --- | --- | --- | --- | --- | --- | --- |
| O=C(O)Cc1cc(OCc2ccc3ccc(Cl)cc3n2)ccc1Nc1c(Cl)cccc1Cl [Example 6, 5[(7-Chloro-2-quinolinyl)methoxy]-2-[(2,6-dichlorophenyl)amino]benzene acetic acid] | -8.6 | 80 | 26 | -4 | -18 | -24 | -24 | -32 | -18% | -39 | -10 | -12 | 38.8 | – | – | – | – | – |
| COC(=O)Cc1cc(OCc2ccc3ccccc3c2)ccc1Nc1c(Cl)cccc1Cl [Example 7, 2-[(2,6-Dichlorophenyl)amino]-5-[(2-naphthalenyl)-methoxy]benzene acetic acid methyl ester] | 3.6 | – | -26 | – | -54 | -32 | -39 | – | – | – | – | -44 | -65.4 | 34 | – | – | – | – |
| O=C(O)Cc1cc(OCc2ccc3ccccc3c2)ccc1Nc1c(Cl)cccc1Cl [Example 8, acetic acid] | -3.9 | 67 | 30 | – | – | -28 | -43 | -47 | +35% | -37 | -24 | – | 42.5 | – | – | – | – | – |
| O=C(O)Cc1cc(OCCCCOc2ccccc2)ccc1Nc1c(Cl)cccc1Cl [Example 9, 2-[(2,6-Dichlorophenyl)amino]-5-[(4-phenoxy)butoxy]benzene acetic acid] | 2.2 | 16 | 38 | – | – | -54 | -32 | – | -12% | -4 | – | – | 15.7 | 100 | 100 | -41 | +37% | – |
| CC(C)Cc1ccc(C(C)C(=O)O)cc1 (stereo not drawn) [Ibuprofen, reference compound] | – | – | – | – | – | – | – | – | – | – | – | – | – | – | – | – | – | Not Active |
| COc1ccc2c(c1)c(CC(=O)O)c(C)n2C(=O)c1ccc(Cl)cc1 [Indomethacin, reference compound] | – | – | – | – | – | – | – | – | – | – | – | – | – | – | – | – | – | Not Active |
